Patent publication US11324798B2, “Materials and methods for treatment of inflammation” (CYTOGEL PHARMA, LLC, priority 2010, dated 2022)
Several values for one entry are separate records, joined by “and”; a condition that tells them apart may be missing. Equal entries are not always repeated.

System: CGRP release from isolated rat tracheae
Experiment: Electrical field stimulation (EFS)-evoked release of CGRP from isolated rat tracheae, radioimmunoassay
Type: cell-based
Conditions: for Release of CGRP into the incubation medium / Absolute release of CGRP: individual experiments 1-5; for Release of CGRP into the incubation medium, Mean / Absolute release of CGRP, Mean: mean of 5 experiments
Procedure: For the in vitro release experiments, a 10 mg/ml (14.62 mM; MW 684) stock solution of CYT-1010 was made in DMSO, which was further diluted with the oxygenated Krebs solution used in the organ bath: 5.5 μl of this CYT-1010 stock solution was added into 40 ml Krebs to make the highest applied 2 μM concentration of compound CYT-1010. Further dilutions to obtain the lower concentrations were prepared with Krebs solution.
The incubation media containing the respective CYT-1010 concentrations were administered in the stimulated and post-stimulated 8-min fractions.
Since even the highest, 2 μM, concentration of CYT-1010 solution contained negligible amount of DMSO, simple Krebs solution was used in the control experiments.
Rats were exsanguinated in deep anaesthesia (sodium thiobarbital, 50 mg/kg i.p.), then the whole trachea was removed and cleaned of fat and adhering connective tissues. Tracheae from two rats were placed into the same 1.8 ml organ bath to obtain sufficient amount of released peptide and perfused (1 ml/min) with pH-(7.2) controlled oxygenized Krebs solution for 60 minutes (equilibration period) at 37° C. temperature. After discontinuation of the flow, the solution was changed three times for eight minutes to produce pre-stimulated, stimulated, post-stimulated fractions.
Electrical field stimulation (40 V, 0.1 ms, 10 Hz for 120 s; 1200 pulses) was performed to elicit neurotransmitter release at the beginning of the second 8-minute period. Stimulation with 0.1 ms pulse width selectively activates very fast Na^+ channels, which are only present in the membrane of neural structures (Birmingham and Wilson, 1963; Coburn and Tomita 1973; Szolcsányi and Barthó, 1982); therefore, it excites nerve endings without influencing other excitable cells in the tracheae such as smooth muscle cells.
Krebs solution was used in the pre-stimulated fraction for determining the basal CGRP outflow. During the stimulated and post-stimulated fractions, the incubation medium contained the examined concentrations of CYT-1010 (10, 100, 500, 1000 and 2000 nM) in separate experiments, and only one concentration was applied to the same tracheae to avoid neuropeptide depletion. In each group, 5 experiments were performed in parallel in 5 perfusion systems to provide n=5 data per group (10 tracheae per group).
60 male Wistar rats (250-300 g) altogether were divided into 6 experimental groups: Group 1: controls (n=10); Group 2: 10 nM CYT-1010 (n=10); Group 3: 100 nM CYT-1010 (n=10); Group 4: 500 nM CYT-1010 (n=10); Group 5: 1000 nM CYT-1010 (n=10); and Group 6: 2000 nM CYT-1010 (n=10). The total study was performed on three experimental days, two groups every occasion.
Calcitonin gene-related peptide (CGRP) and substance P (SP) concentrations were determined from 400-400 μl samples of organ fluid of the preparations by means of radioimmunoassay methods described in Nemeth et al., 1996, 1998, 1999, 2006; Helyes et al., 1997, 2001, 2006; Borzsei et al., 2008). Each of these publications is incorporated herein by reference in its entirety.
The released amount of the peptides CGRP and SP was calculated as fmol peptide per mg wet tissue (trachea). The absolute release in response to EFS in each experiment was calculated by adding peptide release in the second and third 8-min fractions and then taking off the basal release measured in the first (pre-stimulated) fraction. The detection limits of the RIA assays were 0.2 fmol/tube and 2 fmol/tube for CGRP and SP, respectively.

For `NC(Cc1ccc(O)cc1)C(=O)NC1CCCCNC(=O)C(Cc2ccccc2)NC(=O)C(Cc2c[nH]c3ccccc23)NC1=O` [CYT-1010, H-Tyr-c-[D-Lys-Trp-Phe]], the “Effect on CGRP release in the third, post-stimulated fraction” value (10 nM) was “did not influence”, the “CGRP release, % increase above baseline” value (10 nM, after stimulation) was 105.75% and the “Release of CGRP into the incubation medium” value (10 nM, after stimulation (post-stimulated 8-min fraction)) was 0.602 fmol/mg wet tissue and 0.730 fmol/mg wet tissue and 0.193 fmol/mg wet tissue and 0.204 fmol/mg wet tissue and 0.528 fmol/mg wet tissue. The “Release of CGRP into the incubation medium, Mean” value (10 nM, after stimulation (post-stimulated fraction)) was 0.451 fmol/mg wet tissue, the “CGRP release, % increase above baseline” value (10 nM, before stimulation) was 0.00% and the “Release of CGRP into the incubation medium” value (10 nM, before stimulation (pre-stimulated 8-min fraction)) was 0.220 fmol/mg wet tissue and 0.250 fmol/mg wet tissue and 0.146 fmol/mg wet tissue and 0.256 fmol/mg wet tissue and 0.226 fmol/mg wet tissue. For the same compound, the “Release of CGRP into the incubation medium, Mean” value (10 nM, before stimulation (pre-stimulated fraction)) was 0.219 fmol/mg wet tissue, the “CGRP release, % increase above baseline” value (10 nM, during stimulation) was 105.75% and the “Release of CGRP into the incubation medium” value (10 nM, during stimulation (stimulated 8-min fraction)) was 0.600 fmol/mg wet tissue and 0.420 fmol/mg wet tissue and 0.299 fmol/mg wet tissue and 0.308 fmol/mg wet tissue and 0.630 fmol/mg wet tissue. For the same compound, the “Release of CGRP into the incubation medium, Mean” value (10 nM, during stimulation (stimulated fraction)) was 0.451 fmol/mg wet tissue, the “Absolute release of CGRP” value (10 nM) was 0.762 fmol/mg wet tissue and 0.650 fmol/mg wet tissue and 0.201 fmol/mg wet tissue and 0.001 fmol/mg wet tissue and 0.706 fmol/mg wet tissue and the “Absolute release of CGRP, Mean” value (10 nM) was 0.464 fmol/mg wet tissue. For the same compound, the “CGRP release, % increase above baseline” value (100 nM, after stimulation) was 39.26%, the “Release of CGRP into the incubation medium” value (100 nM, after stimulation (post-stimulated 8-min fraction)) was 0.284 fmol/mg wet tissue and 0.135 fmol/mg wet tissue and 0.267 fmol/mg wet tissue and 0.231 fmol/mg wet tissue and 0.226 fmol/mg wet tissue and the “Release of CGRP into the incubation medium, Mean” value (100 nM, after stimulation (post-stimulated fraction)) was 0.229 fmol/mg wet tissue. The “CGRP release, % increase above baseline” value (100 nM, before stimulation) was 0.00%, the “Release of CGRP into the incubation medium” value (100 nM, before stimulation (pre-stimulated 8-min fraction)) was 0.243 fmol/mg wet tissue and 0.129 fmol/mg wet tissue and 0.128 fmol/mg wet tissue and 0.138 fmol/mg wet tissue and 0.183 fmol/mg wet tissue and the “Release of CGRP into the incubation medium, Mean” value (100 nM, before stimulation (pre-stimulated fraction)) was 0.164 fmol/mg wet tissue. For the same compound, the “CGRP release, % increase above baseline” value (100 nM, during stimulation) was 184.81%, the “Release of CGRP into the incubation medium” value (100 nM, during stimulation (stimulated 8-min fraction)) was 0.586 fmol/mg wet tissue and 0.281 fmol/mg wet tissue and 0.526 fmol/mg wet tissue and 0.390 fmol/mg wet tissue and 0.554 fmol/mg wet tissue and the “Release of CGRP into the incubation medium, Mean” value (100 nM, during stimulation (stimulated fraction)) was 0.468 fmol/mg wet tissue. The “Absolute release of CGRP” value (100 nM) was 0.384 fmol/mg wet tissue and 0.159 fmol/mg wet tissue and 0.538 fmol/mg wet tissue and 0.344 fmol/mg wet tissue and 0.415 fmol/mg wet tissue, the “Absolute release of CGRP, Mean” value (100 nM) was 0.368 fmol/mg wet tissue and the “Inhibition of EFS-evoked absolute CGRP release” value (“Inhibition” for short) (500 nM (maximal effect), 0.5 µM) was 69.9% and 70%. The “CGRP release, % increase above baseline” value (500 nM, after stimulation) was 48.89%, the “Release of CGRP into the incubation medium” value (500 nM, after stimulation (post-stimulated 8-min fraction)) was 0.137 fmol/mg wet tissue and 0.206 fmol/mg wet tissue and 0.267 fmol/mg wet tissue and 0.224 fmol/mg wet tissue and 0.213 fmol/mg wet tissue and the “Release of CGRP into the incubation medium, Mean” value (500 nM, after stimulation (post-stimulated fraction)) was 0.210 fmol/mg wet tissue. For the same compound, the “CGRP release, % increase above baseline” value (500 nM, before stimulation) was 0.00%, the “Release of CGRP into the incubation medium” value (500 nM, before stimulation (pre-stimulated 8-min fraction)) was 0.136 fmol/mg wet tissue and 0.148 fmol/mg wet tissue and 0.146 fmol/mg wet tissue and 0.118 fmol/mg wet tissue and 0.157 fmol/mg wet tissue and the “Release of CGRP into the incubation medium, Mean” value (500 nM, before stimulation (pre-stimulated fraction)) was 0.141 fmol/mg wet tissue. For the same compound, the “CGRP release, % increase above baseline” value (500 nM, during stimulation) was 70.52%, the “Release of CGRP into the incubation medium” value (500 nM, during stimulation (stimulated 8-min fraction)) was 0.162 fmol/mg wet tissue and 0.301 fmol/mg wet tissue and 0.304 fmol/mg wet tissue and 0.192 fmol/mg wet tissue and 0.241 fmol/mg wet tissue and the “Release of CGRP into the incubation medium, Mean” value (500 nM, during stimulation (stimulated fraction)) was 0.240 fmol/mg wet tissue. The “Absolute release of CGRP” value (500 nM) was 0.028 fmol/mg wet tissue and 0.212 fmol/mg wet tissue and 0.279 fmol/mg wet tissue and 0.181 fmol/mg wet tissue and 0.140 fmol/mg wet tissue, the “Absolute release of CGRP, Mean” value (500 nM) was 0.168 fmol/mg wet tissue and the “Inhibition” value (1000 nM, 1 µM) was 66.3% and 66%. The “Inhibition” value (2000 nM) was 49.1%, the “CGRP release, % increase above baseline” value (1 microM, after stimulation) was 29.82% and the “Release of CGRP into the incubation medium” value (1 microM, after stimulation (post-stimulated 8-min fraction)) was 0.386 fmol/mg wet tissue and 0.162 fmol/mg wet tissue and 0.130 fmol/mg wet tissue (2×) and 0.121 fmol/mg wet tissue. For the same compound, the “Release of CGRP into the incubation medium, Mean” value (1 microM, after stimulation (post-stimulated fraction)) was 0.186 fmol/mg wet tissue, the “CGRP release, % increase above baseline” value (1 microM, before stimulation) was 00.0% and the “Release of CGRP into the incubation medium” value (1 microM, before stimulation (pre-stimulated 8-min fraction)) was 0.262 fmol/mg wet tissue and 0.135 fmol/mg wet tissue and 0.108 fmol/mg wet tissue (2×) and 0.102 fmol/mg wet tissue. For the same compound, the “Release of CGRP into the incubation medium, Mean” value (1 microM, before stimulation (pre-stimulated fraction)) was 0.143 fmol/mg wet tissue and the “CGRP release, % increase above baseline” value (1 microM, during stimulation) was 101.59%.
